Values after ≈ are worked out from the molar mass of the structure shown.
Legend:
P. aeruginosa ATCC 27950 = experiment: MBC by the agar method; conditions: Pseudomonas aeruginosa, ATCC27950
Description: (§2) To further determine the killing efficiency of the synthesized spiropyrrolidines against selected strains, the minimum bactericidal concentration (MBC) and the minimum fungicidal concentration (MFC) were assessed by the agar method [54].

[1] = molecular target: T1, Lipoxygenase-5 (LOX-5) enzyme (Homo sapiens, UniProt P09917); experiment: In vitro lipoxygenase (LOX-5) inhibitory assay; type: biochemical; conditions: mean ± SEM, n = 5; read-out: IC50 (LOX-5 inhibition) (converted)
T1 construct: purchased sigma 437996-500U
T1 sequence (P09917 1-674): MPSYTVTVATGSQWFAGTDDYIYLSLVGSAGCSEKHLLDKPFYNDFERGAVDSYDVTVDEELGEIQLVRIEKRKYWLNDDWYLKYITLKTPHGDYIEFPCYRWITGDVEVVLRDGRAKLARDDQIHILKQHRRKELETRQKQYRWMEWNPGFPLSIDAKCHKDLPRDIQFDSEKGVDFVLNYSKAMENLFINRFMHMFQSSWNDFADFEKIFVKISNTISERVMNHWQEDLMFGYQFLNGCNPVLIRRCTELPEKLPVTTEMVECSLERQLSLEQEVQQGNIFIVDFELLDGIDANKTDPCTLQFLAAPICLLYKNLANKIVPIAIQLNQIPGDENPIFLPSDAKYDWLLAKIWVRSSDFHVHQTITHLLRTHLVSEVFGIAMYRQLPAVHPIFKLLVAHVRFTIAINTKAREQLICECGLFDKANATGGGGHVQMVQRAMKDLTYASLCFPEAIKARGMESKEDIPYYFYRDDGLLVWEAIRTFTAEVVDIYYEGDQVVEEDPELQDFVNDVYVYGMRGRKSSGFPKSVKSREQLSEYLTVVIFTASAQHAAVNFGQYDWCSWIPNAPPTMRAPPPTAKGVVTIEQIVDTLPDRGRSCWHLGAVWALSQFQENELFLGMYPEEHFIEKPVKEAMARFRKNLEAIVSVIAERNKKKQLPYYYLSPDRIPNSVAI
Description: Lipoxygenases are a family of monomeric proteins that catalyze oxidation of polyunsaturated fatty acids (PUFA) (linoleic, linolenic and arachidonic acid) to produce hydroperoxides. Fractions’ anti-LOX activity was also measured as inhibition of linoleic acid’s peroxidation to hydroperoxylinoleic acid.
To evaluate the prospects of the newly synthesized spirooxindoles as promising drug candidates, we first studied their inhibitory potency against the Lipoxygenase-5 (LOX-5) enzyme.

C. albicans ATCC 90028 = experiment: MFC by the agar method; conditions: for MFC/MIC ratio: C. Albicans, ≤ 4 fungicidal, >4 fungistatic; for MFC: Candida albicans, ATCC90028
Description: as §2

M. luteus NCIMB 8166 = experiment: MBC by the agar method; conditions: for MBC: Micrococcus luteus, NCIMB8166
Description: as §2

[2] = tested on: Staphylocoocus aureus ATCC 25923; experiment: MIC, in vitro micro diffusion method; type: cell-based; conditions: Staphylococcus aureus, ATCC25923; S. aureus ATCC 25923
From the text: (§1) In this part, the spiropyrrolidines 4a–m were selected to be screening for their antimicrobial activities, using in vitro micro diffusion method, against multiple bacterial strains (Staphylocoocus aureus ATCC 25923, Escherichia coli ATCC 25922, Pseudomonas aeruginosa ATCC 27950, Micrococcus luteus NCIMB 8166), and two pathogenic reference yeasts namely Candida albicans ATCC 90028 and Candida kreusei ATCC 6258.

E. coli ATCC 25922 = experiment: MBC by the agar method
Description: as §2

S. aureus ATCC 25923 = experiment: MBC by the agar method; conditions: for MBC: Staphylococcus aureus, ATCC25923
Description: as §2

C. kreusei ATCC 6258 = experiment: MFC by the agar method; conditions: for MFC/MIC ratio: C. Krusei, ≤ 4 fungicidal, >4 fungistatic; for MFC: Pichia kudriavzevii, ATCC6258
Description: as §2

[3] = tested on: Micrococcus luteus NCIMB 8166; experiment: MIC, in vitro micro diffusion method; type: cell-based; conditions: NCIMB8166, M. luteus NCIMB 8166
From the text: as §1

[4] = tested on: acetic acid-induced writhing; experiment: Acetic acid-induced writhing test (analgesic); conditions: 100 mg/kg; for Number of Writhing: mean ± SE
Description: Any writhing was considered a positive response. The efficacy and potency of analgesic activity of the test compounds is inferred from the reduction in the frequency of writhings [53].
Analgesic activity in rats was determined by the protocol described by Tiss et al. [82].

[5] = Acute toxicity (liver and kidney indices); type: in vivo; conditions: rats; for ALT / AST / Albumin / Creat / Urea: dose of 16.25 mg/kg; for Acute toxicity (result in words): up to a dose of 16.25 mg/kg
[6] = tested on: λ-carrageenan-induced paw edema; experiment: Carrageenan-induced paw edema test; type: in vivo; conditions: rats; for Increase in Paw Volume, 0 h / Increase in Paw Volume, 1 h / Increase in Paw Volume, 2 h / Increase in Paw Volume, 4 h: 10 mg/kg orally 1 h before carrageenan; for % Inhibition of Edema, 1 h / % Inhibition of Edema, 2 h / % Inhibition of Edema, 4 h: 10 mg/kg orally
From the text: Diclofenac sodium was used as a reference drug.

[7] = Escherichia coli, ATCC25922, E. coli ATCC 25922

Structure (SMILES) | MBC (P. aeruginosa ATCC 27950) [mg/L] | IC50 [1] [mM] | melting point [°C] | MFC/MIC ratio (C. albicans ATCC 90028) | MFC (C. albicans ATCC 90028) [mg/L] | MBC (M. luteus NCIMB 8166) [mg/L] | MBC (E. coli ATCC 25922; E. coli ATCC 25922) [mg/L] | MBC (E. coli ATCC 25922; [7]) [mg/L] | MBC (S. aureus ATCC 25923) [mg/L] | MFC/MIC ratio (C. kreusei ATCC 6258) | MFC (C. kreusei ATCC 6258) [mg/L] | % Inhibition (writhing) [4] [%] | Number of Writhing [4] | Increase in Paw Volume, 0 h [6] | Increase in Paw Volume, 1 h [6] | Increase in Paw Volume, 2 h [6] | Increase in Paw Volume, 4 h [6] | % Inhibition of Edema, 1 h [6] [%] | % Inhibition of Edema, 2 h [6] [%] | further results
Cc1ccc([C@H]2[C@H](c3ccccc3)N[C@@]3(C(=O)Nc4ccc(Br)cc43)[C@@]23NC(=O)NC3=O)cc1 (racemic) [4b] | 93.8 (≈ 181 µM) | 5.66 | 236 | ≤ 4 | 188 (≈ 362 µM) | 750 (≈ 1450 µM) | 375 (≈ 725 µM) | 188 to 374 (≈ 362 to 723 µM) | 750 (≈ 1450 µM) | ≤ 4 | 93.8 (≈ 181 µM) |  |  |  |  |  |  |  |  | MIC [2]: 46.9 mg/L (≈ 90.6 µM); MBC/MIC ratio (S. aureus ATCC 25923; S. aureus, ≤ 4 bactericidal, >4 bacteriostatic): 16
COc1ccc([C@H]2[C@H](c3ccccc3)N[C@@]3(C(=O)Nc4ccccc43)[C@@]23NC(=O)NC3=O)cc1 (racemic) [4d] | 188 (≈ 413 µM) | 5.15 | 187 |  | > 1500 | 750 (≈ 1650 µM) | 375 (≈ 825 µM) | 188 to 374 (≈ 413 to 823 µM) | 93.8 (≈ 206 µM) |  | 93.8 (≈ 206 µM) |  |  |  |  |  |  |  |  | 
O=C1NC(=O)[C@]2(N1)[C@@H](c1ccc(Cl)cc1)[C@H](c1ccccc1)N[C@@]21C(=O)N(Cc2ccccc2)c2ccccc21 (racemic) [4f] | 375 (≈ 683 µM) | 8.96 | 195 |  | 93.8 (≈ 171 µM) | 750 (≈ 1370 µM) | 375 (≈ 683 µM) | 188 to 374 (≈ 342 to 681 µM) | 188 (≈ 342 µM) |  | 93.8 (≈ 171 µM) |  |  |  |  |  |  |  |  | 
O=C1NC(=O)[C@]2(N1)[C@@H](c1ccc(Cl)cc1)[C@H](c1ccccc1)N[C@@]21C(=O)Nc2ccc(Br)cc21 (racemic) [4h] | 188 (≈ 349 µM) | 3.09 | 198 |  | > 1500 | 188 (≈ 349 µM) | 375 (≈ 697 µM) | 188 to 374 (≈ 349 to 695 µM) | 188 (≈ 349 µM) |  | > 1500 |  |  |  |  |  |  |  |  | MBC/MIC ratio (M. luteus NCIMB 8166; M. luteus, ≤ 4 bactericidal, >4 bacteriostatic): 8; MIC [3]: 93.8 mg/L (≈ 174 µM)
O=C1NC(=O)[C@]2(N1)[C@@H](c1ccc(F)cc1)[C@H](c1ccccc1)N[C@@]21C(=O)Nc2ccccc21 (racemic) [4i] | 188 (≈ 424 µM) | 2.28 |  | ≤ 4 | 93.8 (≈ 212 µM) | > 1500 |  | 750 (≈ 1700 µM) | 750 (≈ 1700 µM) | ≤ 4 | 188 (≈ 424 µM) | 42 | 36 ± 5 | 0.43 ± 0.14 | 0.98 ± 0.11 | 1.13 ± 0.21 | 1.51 ± 0.13 | 27 | 25 | ALT [5]: 21.1 ± 1.5 U/L; AST [5]: 98.3 ± 13 U/L; Albumin [5]: 8.7 ± 1.66 g/L; Creat [5]: 3.31 ± 0.9 µmol/L; Urea [5]: 2.83 ± 0.7 mmol/L; Acute toxicity (result in words) [5]: did not cause any toxicity; % Inhibition of Edema, 4 h ([6]; 10 mg/kg): 33%
O=C1NC(=O)[C@]2(N1)[C@@H](c1ccc(F)cc1)[C@H](c1ccccc1)N[C@@]21C(=O)Nc2ccc(Cl)cc21 (racemic) [4j] | 93.8 (≈ 197 µM) | 4.03 | 208 |  | 93.8 (≈ 197 µM) | 750 (≈ 1570 µM) |  | 188 (≈ 393 µM) | 93.8 (≈ 197 µM) |  | 188 (≈ 393 µM) |  |  |  |  |  |  |  |  | 
O=C1NC(=O)[C@]2(N1)[C@@H](c1ccc(F)cc1)[C@H](c1ccccc1)N[C@@]21C(=O)Nc2ccc(Br)cc21 (racemic) [4k] | 188 (≈ 360 µM) | 2.97 | 223 | ≤ 4 | 188 (≈ 360 µM) | > 1500 |  | 188 (≈ 360 µM) | 188 (≈ 360 µM) | ≤ 4 | 188 (≈ 360 µM) |  |  |  |  |  |  |  |  | 
O=C1NC(=O)[C@]2(N1)[C@@H](c1ccccc1O)[C@H](c1ccccc1)N[C@@]21C(=O)Nc2ccccc21 (racemic) [4l] | 93.8 (≈ 213 µM) | 2.47 |  | ≤ 4 | 188 (≈ 426 µM) | 750 (≈ 1700 µM) |  | 188 (≈ 426 µM) | 93.8 (≈ 213 µM) | ≤ 4 | 93.8 (≈ 213 µM) | 53 | 29 ± 6 | 0.57 ± 0.19 | 0.93 ± 0.13 | 1.26 ± 0.31 | 1.73 ± 0.33 | 29 | 18 | ALT [5]: 22 ± 1.7 U/L; AST [5]: 101 ± 11 U/L; Albumin [5]: 8.5 ± 1.1 g/L; Creat [5]: 3.41 ± 0.8 µmol/L; Urea [5]: 2.97 ± 0.5 mmol/L; Acute toxicity (result in words) [5]: did not cause any toxicity; % Inhibition of Edema, 4 h [6]: 32%; MIC [2]: 46.9 mg/L (≈ 106 µM)
O=C(O)Cc1ccccc1Nc1c(Cl)cccc1Cl [Diclofenac sodium, reference compound] |  |  |  |  |  |  |  |  |  |  |  | 63 | 23 ± 4 | 0.41 ± 0.11 | 0.59 ± 0.13 | 0.83 ± 0.19 | 1.21 ± 0.39 | 30 | 46 | Number of Writhing ([4]; listed as diclofenac sodium): 23; % Inhibition of Edema, 4 h [6]: 46%
CN(C)[C@@H]1C(O)=C(C(N)=O)C(=O)[C@@]2(O)C(O)=C3C(=O)c4c(O)cccc4[C@@](C)(O)[C@H]3C[C@@H]12 [Tetracycline, reference compound] | 128 (≈ 288 µM) |  |  |  |  | 512 (≈ 1150 µM) |  | 512 (≈ 1150 µM) | 8 (≈ 18 µM) |  |  |  |  |  |  |  |  |  |  | MIC [3]: 500 mg/L (≈ 1130 µM)
